Test results taken from PubChem BioAssay AID1963448 (Molecular Pharmacology Branch, DTP, NCI, 2024).
pIC50: −log10 of the molar value.

System: 616215-338-R-J1-PDC complex spheroid growth, % test/control
Test: Anticancer human tumor 616215-338-R-J1-PDC patient-derived colon adenocarcinoma cell line growth inhibition [Asc]
Settings: for pIC50: curve of first compound; for viability, T/C: stronger effect = lower value; active = viability on the fitted dose curve at most 10% of control; inactive = the rest
Method: Multicellular complex tumor spheroid response to apoptosis pathway targeting inhibitors Alrizomadlin, Pelcitoclax, and Dasminapant in combination with a variety of drugs and investigational agents in selected tumor cell lines
The MDM2 inhibitor alrizomadlin, the Bcl-2/Bcl-xL inhibitor pelcitoclax, and the IAPs inhibitor dasminapant were evaluated both individually and in combination with standard of care and investigational anticancer small molecules within a complex spheroid model of solid tumors. . Complex spheroids include a stromal component modeled by human endothelial cells (HUVEC) and fibroblasts modeled by human mesenchymal stem cells (MSCs). The concentration ranges selected for each drug and investigational agent were based upon clinically achievable concentrations if the clinical Cmax of the agent was known.
Compounds. The drugs and investigational agents: alrizomadlin (APG-115; NSC831270), pelcitoclax (APG-1252; NSC835773), dasminapant (APG-1387;NSC834197), TAK-243 (NSC785004), copanlisib (NSC809693), olaparib (NSC753686), talazoparib (NSC767125), cobimetinib (NSC 768068), eltanexor (KPT-8602, NSC 794443), abemaciclib (NSC 768073), sotorasib (NSC818433), adagrasib (NSC 831453), MRTX-1133 (NSC 836407), Iadademestat (ORY1001, NSC 806812), and RMC-4630 (NSC839698), were obtained from the NCI Developmental Therapeutics Program Chemical Repository. The FDA-approved anticancer drug set is available from the Developmental Therapeutics Program at https://dtp.cancer.gov/organization/dscb/obtaining/available plates.htm. […] The stock solutions were prepared in dimethyl sulfoxide (DMSO, Sigma-Aldrich, St. Louis, MO, cat. D2650) at 800-fold the tested concentration and stored at -70 degrees C prior to their use. All drugs and investigational agents were tested over a range starting from a high concentration at or near the clinical Cmax and decreasing in half-log increments. If the clinical Cmax for an agent had not been determined, the highest concentration tested was 10 microM.
The patient-derived cancer (PDC) cell lines include five colon adenocarcinomas: 186277-243-T-J2-PDC, 616215-338-R-J1-PDC, 439559-082-T-J2-PDC, 463943-066-T-J2-PDC, and 519858-162-T-J1-PDC; three pancreatic carcinomas: 323965-272-R-J2-PDC, 521955-158-R6-J3-PDC, and 521955-158-R2-J5-PDC; two uterine sarcomas: 327498-152-R-J2-PDC and 993429-296-R-J1-PDC; two rhabdomyosarcomas: 755483-174-R-J1-PDC and 772245-204-R-J1-PDC; two soft tissue sarcomas: 126254-015-R-J1-PDC and 494315-158-R-J1-PDC; two malignant fibrous histiocytomas: 317291-083-R-J1-PDC and 596521-263-R-J1-PDC; two breast carcinomas: 171881-019-R-J1-PDC and 885512-296-R-J2-PDC; and one ovarian carcinoma: 6556581-035-R-J-PDC were obtained from the NCI PDMR, (https://pdmr.cancer.gov). The established cell lines HSSY-2 synovial sarcoma (RRID:CVCL 8719), SYO-1 synovial sarcoma (RRID:CVCL_7146), MPNST malignant peripheral neural sheath tumor were obtained from the Sloan Kettering Institute. The following established cell lines were purchased from the American Type Culture Collection (ATCC, Manassas, VA), Sor the received from the NCI repository:, PANC-1 pancreatic carcinoma (CRL-1469, RRID:CVCL_0480), OVCAR-5 ovarian carcinoma (RRID:CVCL_1628), OVCAR-8 ovarian carcinoma (RRID:CVCL_1629), , MCF-7 breast carcinoma (CRL-12584, RRID:CVCL_0031), MDA-MB-231 breast carcinoma (CRL-12532, RRID:CVCL_0062), NCI-H1876 small cell lung carcinoma (CRL-5902, RRID:CVCL_1503), NCI-H510A small cell lung carcinoma (HTB-184, RRID:CVCL_1565), NCI-H1417 (CRL-5869, RRID:CVCL_1469), and NCI-H196 small cell lung carcinoma (CRL-5823, RRID:CVCL_1509). Dr. Peter Houghton (Greehey Children's Cancer Research Institute, University of Texas Health Science Center, San Antonio, TX) provided Rh-18 rhabdomyosarcoma (RRID:CVCL_1659). Pooled donor human umbilical vein endothelial cells (HUVEC, Lonza, cat. CC-2519) and human mesenchymal stem cells (hMSC, Lonza, cat. PT-2501) were purchased from Lonza (Walkersville, MD).
Cell Culture. […]
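Also: spheroids exposed to agents for seven days before readout.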
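For viability, T/C in this document: 100% = DMSO vehicle control viability.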

CCN1C(C(=O)NC23CCC(C(=O)O)(CC2)CC3)C(c2cccc(Cl)c2F)C2(C(=O)Nc3cc(Cl)ccc32)C12CCCCC2 (configuration not stated) + CNC(C)C(=O)NC1CN(S(=O)(=O)c2cccc(S(=O)(=O)N3CCC4CCC(C(=O)NC(c5ccccc5)c5ccccc5)N4C(=O)C(NC(=O)C(C)NC)C3)c2)CCC2CCC(C(=O)NC(c3ccccc3)c3ccccc3)N2C1=O
6.76: pIC50 (second compound 0.0316 µM)
7.06: pIC50 (second compound 0.00316 µM) | pIC50 (second compound 0.01 µM)
inactive: viability, T/C (second compound 0.00316 µM, first compound 0.00949 µM) 109% | viability, T/C (second compound 0.00316 µM, first compound 0.03 µM) 108% | viability, T/C (second compound 0.00316 µM, first compound 0.0949 µM) 41.7% | viability, T/C (second compound 0.00316 µM, first compound 0.3 µM) 45.3% | viability, T/C (second compound 0.00316 µM, first compound 0.949 µM) 49.6% | viability, T/C (second compound 0.00316 µM, first compound 3 µM) 45.4% | viability, T/C (second compound 0.01 µM, first compound 0.00949 µM) 108% | viability, T/C (second compound 0.01 µM, first compound 0.03 µM) 104% | viability, T/C (second compound 0.01 µM, first compound 0.0949 µM) 41.6% | viability, T/C (second compound 0.01 µM, first compound 0.3 µM) 44% | viability, T/C (second compound 0.01 µM, first compound 0.949 µM) 54.3% | viability, T/C (second compound 0.01 µM, first compound 3 µM) 41.1% | viability, T/C (second compound 0.0316 µM, first compound 0.00949 µM) 99.2% | viability, T/C (second compound 0.0316 µM, first compound 0.03 µM) 101% | viability, T/C (second compound 0.0316 µM, first compound 0.0949 µM) 53.5% | viability, T/C (second compound 0.0316 µM, first compound 0.3 µM) 50% | viability, T/C (second compound 0.0316 µM, first compound 0.949 µM) 48.7% | viability, T/C (second compound 0.0316 µM, first compound 3 µM) 42% | viability, T/C (second compound 0.1 µM, first compound 0.00949 µM) 111% | viability, T/C (second compound 0.1 µM, first compound 0.03 µM) 78.2% | viability, T/C (second compound 0.1 µM, first compound 0.0949 µM) 51.1% | viability, T/C (second compound 0.1 µM, first compound 0.3 µM) 36.3% | viability, T/C (second compound 0.1 µM, first compound 0.949 µM) 52.8% | viability, T/C (second compound 0.1 µM, first compound 3 µM) 41.1% | viability, T/C (second compound 0.316 µM, first compound 0.00949 µM) 97.5% | viability, T/C (second compound 0.316 µM, first compound 0.03 µM) 89.5% | viability, T/C (second compound 0.316 µM, first compound 0.0949 µM) 43.4% | viability, T/C (second compound 0.316 µM, first compound 0.3 µM) 41.2% | viability, T/C (second compound 0.316 µM, first compound 0.949 µM) 44.9% | viability, T/C (second compound 0.316 µM, first compound 3 µM) 44.1% | viability, T/C (second compound 1 µM, first compound 0.00949 µM) 89.8% | viability, T/C (second compound 1 µM, first compound 0.03 µM) 83.4% | viability, T/C (second compound 1 µM, first compound 0.0949 µM) 47.5% | viability, T/C (second compound 1 µM, first compound 0.3 µM) 43.5% | viability, T/C (second compound 1 µM, first compound 0.949 µM) 60.1% | viability, T/C (second compound 1 µM, first compound 3 µM) 39.5%
7.03: pIC50 (second compound 0.1 µM)
7.05: pIC50 (second compound 1 µM)
7.09: pIC50 (second compound 0.316 µM)

O=C(c1cc(Cc2n[nH]c(=O)c3ccccc23)ccc1F)N1CCN(C(=O)C2CC2)CC1 + Cc1c(S(C)(=O)=O)c(-c2cc(F)cc(N3CCN(c4ccc(NS(=O)(=O)c5ccc(NC(CCN6CCC(C(=O)OCCCP(=O)(O)O)CC6)CSc6ccccc6)c(S(=O)(=O)C(F)(F)F)c5)cc4)CC3)c2)c(-c2ccc(Cl)cc2)n1C(C)C
6.12: pIC50 (second compound 1 µM)
5.17: pIC50 (second compound 0.316 µM)
active: viability, T/C (second compound 3.16 µM, first compound 3.16 µM) 3.59% | viability, T/C (second compound 3.16 µM, first compound 10 µM) 2.49% | viability, T/C (second compound 10 µM, first compound 1 µM) 3.83% | viability, T/C (second compound 10 µM, first compound 3.16 µM) 1.31% | viability, T/C (second compound 10 µM, first compound 10 µM) 1.84%
> 7.50: pIC50 (second compound 3.16 µM) | pIC50 (second compound 10 µM)
< 5.00: pIC50 (second compound 0.1 µM)
inactive: viability, T/C (second compound 0.1 µM, first compound 0.0316 µM) 95.5% | viability, T/C (second compound 0.1 µM, first compound 0.1 µM) 96% | viability, T/C (second compound 0.1 µM, first compound 0.316 µM) 92.5% | viability, T/C (second compound 0.1 µM, first compound 1 µM) 92% | viability, T/C (second compound 0.1 µM, first compound 3.16 µM) 89.1% | viability, T/C (second compound 0.1 µM, first compound 10 µM) 78.8% | viability, T/C (second compound 0.316 µM, first compound 0.0316 µM) 88.8% | viability, T/C (second compound 0.316 µM, first compound 0.1 µM) 90% | viability, T/C (second compound 0.316 µM, first compound 0.316 µM) 85.4% | viability, T/C (second compound 0.316 µM, first compound 1 µM) 86.5% | viability, T/C (second compound 0.316 µM, first compound 3.16 µM) 66.6% | viability, T/C (second compound 0.316 µM, first compound 10 µM) 41.4% | viability, T/C (second compound 1 µM, first compound 0.0316 µM) 72.7% | viability, T/C (second compound 1 µM, first compound 0.1 µM) 67.6% | viability, T/C (second compound 1 µM, first compound 0.316 µM) 59% | viability, T/C (second compound 1 µM, first compound 1 µM) 49% | viability, T/C (second compound 1 µM, first compound 3.16 µM) 26.3% | viability, T/C (second compound 1 µM, first compound 10 µM) 10.9% | viability, T/C (second compound 3.16 µM, first compound 0.0316 µM) 34% | viability, T/C (second compound 3.16 µM, first compound 0.1 µM) 30.4% | viability, T/C (second compound 3.16 µM, first compound 0.316 µM) 25.3% | viability, T/C (second compound 3.16 µM, first compound 1 µM) 17.2% | viability, T/C (second compound 10 µM, first compound 0.0316 µM) 20.7% | viability, T/C (second compound 10 µM, first compound 0.1 µM) 18.4% | viability, T/C (second compound 10 µM, first compound 0.316 µM) 11.2%
